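Five concentrations, 48 hours, 96-well plates. Here, GI50 denotes the concentration required for 50% inhibition of growth.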 The source made the active and inactive calls. Rule as the data show it: active = GI50 up to about 1.1 µM and inactive = higher. Non-standard residues stand in square brackets, D forms with d. Residues, ends and D or L forms follow the SMILES beside them. *: point of attachment. Bn2Val = CC(C)[C@@H](C(=O)*)N(Cc1ccccc1)Cc1ccccc1; NH(4-Cl-benzyl) = Clc1ccc(CN*)cc1; NMeV = CN[C@H](C(=O)O)C(C)C; dNMeA = CN[C@H](C)C(=O)O
Experiments:
Assay in all cases: NCI anticancer screen, dose series, 48 h
RXF 393 = test system: RXF 393
HOP-92 = test system: HOP-92
HCT-116 = test system: HCT-116
A549 = test system: A549
SK-MEL-28 = test system: SK-MEL-28
OVCAR-5 = test system: OVCAR-5
SN12C = test system: SN12C
HOP-62 = test system: HOP-62
SK-OV-3 = test system: SK-OV-3
HT-29 = test system: HT-29
NCI-H522 = test system: NCI-H522
CCRF-CEM = test system: CCRF-CEM
SF-539 = test system: SF-539
SR = test system: SR
LOX IMVI = test system: LOX IMVI
RPMI-8226 = test system: RPMI-8226
786-0 = test system: 786-0
OVCAR-4 = test system: OVCAR-4
NCI/ADR-RES = test system: NCI/ADR-RES

Row | SMILES | GI50 (RXF 393) | GI50 (HOP-92) | GI50 (HCT-116) | GI50 (A549) | GI50 (SK-MEL-28) | GI50 (OVCAR-5) | GI50 (SN12C) | GI50 (HOP-62) | GI50 (SK-OV-3) | GI50 (HT-29) | GI50 (NCI-H522) | GI50 (CCRF-CEM) | GI50 (SF-539) | GI50 (SR) | GI50 (LOX IMVI) | GI50 (RPMI-8226) | GI50 (786-0) | GI50 (OVCAR-4) | GI50 (NCI/ADR-RES)
1 | CCCO/N=[N+](\[O-])N(CC)CC | > 100 µM (inactive) | > 100 µM (inactive) | > 100 µM (inactive) | > 100 µM (inactive) | > 100 µM (inactive) | > 100 µM (inactive) | > 100 µM (inactive) | > 100 µM (inactive) | > 100 µM (inactive) | > 100 µM (inactive) | > 100 µM (inactive) | > 100 µM (inactive) | > 100 µM (inactive) | > 100 µM (inactive) | > 100 µM (inactive) | – | – | – | –
2 | COc1cc2c3c(c1OC)C1(C=CC(=O)C=C1)CC3N(C(=O)OC(C)(C)C(Cl)(Cl)Cl)CC2 (stereo not given) | 4.16 µM (inactive) | 14.4 µM (inactive) | 6.25 µM (inactive) | 10.5 µM (inactive) | – | 2.52 µM (inactive) | 11.6 µM (inactive) | 17.6 µM (inactive) | 26.2 µM (inactive) | 8.53 µM (inactive) | 8.93 µM (inactive) | 7.73 µM (inactive) | 15.7 µM (inactive) | 3.5 µM (inactive) | 10.1 µM (inactive) | 2.23 µM (inactive) | 14.2 µM (inactive) | 12.5 µM (inactive) | –
3 | O=C(O)C(CS)NCc1c2ccccc2nc2ccccc12 (stereo not given) | 24.2 µM (inactive) | 25.9 µM (inactive) | 16.7 µM (inactive) | 91.6 µM (inactive) | 72.6 µM (inactive) | > 100 µM (inactive) | 34.2 µM (inactive) | – | > 100 µM (inactive) | 35.6 µM (inactive) | 25 µM (inactive) | 19 µM (inactive) | 33.9 µM (inactive) | 19.5 µM (inactive) | 30.5 µM (inactive) | 22 µM (inactive) | 55.2 µM (inactive) | 12.9 µM (inactive) | –
4 | CC(C)[C@H](NC(=O)[C@H](C(C)C)N(Cc1ccccc1)Cc1ccccc1)C(=O)N(C)[C@H](C(=O)N1CCC[C@H]1C(=O)N(C)[C@H](C)C(=O)NCc1ccc(Cl)cc1)C(C)C (Bn2Val-V[NMeV]P[dNMeA]-{NH(4-Cl-benzyl)}) | 1.53 µM (inactive) | 2.84 µM (inactive) | 3.02 µM (inactive) | 4.04 µM (inactive) | 4.98 µM (inactive) | 4.9 µM (inactive) | 2.58 µM (inactive) | 4.38 µM (inactive) | 16.2 µM (inactive) | 1.74 µM (inactive) | 2.06 µM (inactive) | 2.42 µM (inactive) | 3.88 µM (inactive) | 3.85 µM (inactive) | 1.85 µM (inactive) | 2.69 µM (inactive) | 3.26 µM (inactive) | 3.96 µM (inactive) | 3.32 µM (inactive)
5 | O=S(=O)(/C=C/c1ccc(F)cc1)Cc1ccc(CS(=O)(=O)/C=C/c2ccc(F)cc2)cc1 | > 100 µM (inactive) | > 100 µM (inactive) | > 100 µM (inactive) | > 100 µM (inactive) | > 100 µM (inactive) | > 100 µM (inactive) | > 100 µM (inactive) | > 100 µM (inactive) | > 100 µM (inactive) | > 100 µM (inactive) | > 100 µM (inactive) | > 100 µM (inactive) | > 100 µM (inactive) | > 100 µM (inactive) | > 100 µM (inactive) | > 100 µM (inactive) | > 100 µM (inactive) | > 100 µM (inactive) | –
6 | Cc1nn(C(=O)c2ccccc2O)c2c1C(c1ccco1)SC(=N)N2 (stereo not given) | 7.1 µM (inactive) | 4.59 µM (inactive) | 3.34 µM (inactive) | 4.43 µM (inactive) | 6.41 µM (inactive) | > 10 µM (inactive) | 5.93 µM (inactive) | 2.58 µM (inactive) | 3.3 µM (inactive) | > 10 µM (inactive) | – | 2.95 µM (inactive) | 4.28 µM (inactive) | 4.9 µM (inactive) | 3.73 µM (inactive) | 4.43 µM (inactive) | 7.01 µM (inactive) | 3.04 µM (inactive) | 3.22 µM (inactive)
7 | CN1C=C(C(N)=O)C2CC(O)[C@@](NC(=O)CS(N)(=O)=O)(C(=O)O)C2C1 (stereo not given in full) | 1.76 µM (inactive) | 1.49 µM (inactive) | 3.32 µM (inactive) | 3.25 µM (inactive) | 2.43 µM (inactive) | 2.42 µM (inactive) | 18.2 µM (inactive) | 1.82 µM (inactive) | 2.47 µM (inactive) | 3.33 µM (inactive) | 11.7 µM (inactive) | 9.33 µM (inactive) | 2.05 µM (inactive) | 2.02 µM (inactive) | 2.37 µM (inactive) | 18 µM (inactive) | 3.61 µM (inactive) | 2.09 µM (inactive) | –
8 | CN1C(=O)CNS1(=O)=O | > 100 µM (inactive) | > 100 µM (inactive) | > 100 µM (inactive) | > 100 µM (inactive) | > 100 µM (inactive) | > 100 µM (inactive) | > 100 µM (inactive) | > 100 µM (inactive) | > 100 µM (inactive) | > 100 µM (inactive) | – | > 100 µM (inactive) | > 100 µM (inactive) | > 100 µM (inactive) | > 100 µM (inactive) | > 100 µM (inactive) | > 100 µM (inactive) | – | –
9 | O=C(NC1CCN(Cc2ccccc2)CC1)c1ccccc1I | 43.9 µM (inactive) | 28.7 µM (inactive) | 16.7 µM (inactive) | 31.6 µM (inactive) | 17.8 µM (inactive) | 22.5 µM (inactive) | 62.7 µM (inactive) | 19.8 µM (inactive) | 22.4 µM (inactive) | 16.6 µM (inactive) | 14.4 µM (inactive) | 24.3 µM (inactive) | 23.2 µM (inactive) | 25.6 µM (inactive) | 17.5 µM (inactive) | 36.3 µM (inactive) | 26.1 µM (inactive) | 86.3 µM (inactive) | 25.7 µM (inactive)
10 | Nc1nc(=O)[nH]c2c1cnn2COCCO | 22.3 µM (inactive) | > 100 µM (inactive) | > 100 µM (inactive) | > 100 µM (inactive) | 37.1 µM (inactive) | 11.3 µM (inactive) | > 100 µM (inactive) | – | – | > 100 µM (inactive) | – | > 100 µM (inactive) | > 100 µM (inactive) | > 100 µM (inactive) | > 100 µM (inactive) | > 100 µM (inactive) | – | > 100 µM (inactive) | –
11 | COc1cc2c(oc(=O)c3cc4ccoc4c(OC)c32)c2cccc(O)c12 | > 100 µM (inactive) | > 100 µM (inactive) | > 100 µM (inactive) | > 100 µM (inactive) | > 100 µM (inactive) | > 100 µM (inactive) | > 100 µM (inactive) | > 100 µM (inactive) | > 100 µM (inactive) | > 100 µM (inactive) | > 100 µM (inactive) | > 100 µM (inactive) | > 100 µM (inactive) | > 100 µM (inactive) | > 100 µM (inactive) | > 100 µM (inactive) | > 100 µM (inactive) | > 100 µM (inactive) | –
12 | CC(=O)OC1COC(N2C(=O)C(=O)c3cc(Br)ccc32)C(OC(C)=O)C1OC(C)=O (stereo not given) | > 100 µM (inactive) | > 100 µM (inactive) | – | > 100 µM (inactive) | > 100 µM (inactive) | – | > 100 µM (inactive) | > 100 µM (inactive) | > 100 µM (inactive) | > 100 µM (inactive) | > 100 µM (inactive) | 71.3 µM (inactive) | > 100 µM (inactive) | > 100 µM (inactive) | > 100 µM (inactive) | > 100 µM (inactive) | > 100 µM (inactive) | > 100 µM (inactive) | –
13 | Cc1cc(C)[n+](CCOc2ccc(/C(=C(/Cl)c3ccccc3)c3ccccc3)cc2)c(C)c1.[O-][Cl+3]([O-])([O-])[O-] | 2.49 µM (inactive) | 0.989 µM (active) | 0.743 µM (active) | 1.55 µM (inactive) | 1.32 µM (inactive) | 2.69 µM (inactive) | 0.774 µM (active) | 2.37 µM (inactive) | 1.25 µM (inactive) | 0.809 µM (active) | 0.39 µM (active) | 0.521 µM (active) | 1.8 µM (inactive) | 0.804 µM (active) | 0.778 µM (active) | 0.348 µM (active) | 2.45 µM (inactive) | 0.944 µM (active) | –
14 | Cc1cc(Cl)cc2c1NC(=O)C2(O)CC(=O)c1ccco1 (stereo not given) | 57 µM (inactive) | > 100 µM (inactive) | > 77.3 µM (inactive) | > 70.6 µM (inactive) | > 70 µM (inactive) | > 100 µM (inactive) | > 85.1 µM (inactive) | > 100 µM (inactive) | > 100 µM (inactive) | > 79.6 µM (inactive) | > 100 µM (inactive) | 38.7 µM (inactive) | > 100 µM (inactive) | 0.506 µM (active) | > 42 µM (inactive) | 47 µM (inactive) | 54.7 µM (inactive) | 12.3 µM (inactive) | 59.7 µM (inactive)
15 | COC(=O)C(C(=O)C(N)=O)c1csc(-n2nc(-c3ccccc3)cc2-c2ccccc2)n1 (stereo not given) | > 31.6 µM (inactive) | > 67 µM (inactive) | > 31.6 µM (inactive) | > 31.6 µM (inactive) | > 31.6 µM (inactive) | > 100 µM (inactive) | > 10 µM (inactive) | > 10 µM (inactive) | > 31.6 µM (inactive) | 41.9 µM (inactive) | 27.6 µM (inactive) | 25.1 µM (inactive) | > 31.6 µM (inactive) | > 10 µM (inactive) | > 88.1 µM (inactive) | > 31.6 µM (inactive) | > 31.6 µM (inactive) | > 31.6 µM (inactive) | –

Reference: ChEMBL document CHEMBL1201862, “PubChem BioAssay data set” (2004)
